Source: patent EP0411182A1, “Ascorbic acid derivative” (NIPPON HYPOX LABORATORIES INCORPORATED, priority 1989, dated 1991)

Test: Effects on formazan formation in the xanthine-xanthine oxidase-Nitrotetrazolium Blue system
Assay type: biochemical
Settings: for Inhibition ratio (%) of formazan formation: 0.05 M phosphoric acid buffer pH 7.8, 30°C
Method: Test example 2 (Effects on formazan formation in the xanthine-xanthine oxidase-Nitrotetrazolium Blue system)
Specimens were added to a 0.05 M phosphoric acid buffer solution (pH 7.8) containing xanthine, EDTA 2Na and Nitrotetrazolium Blue (NTB) so as to provide the respective final concentrations of 5x10⁻⁵ M, 1x10⁻⁴ M and 5x10⁻⁴ M and warmed at 30°C for 30 minutes. Xanthine oxidase (manufactured by Sigma Corp.) was added, and the resulting mixtures were warmed at 30°C for 10 minutes to colorimetrically determine formazan formed by superoxide anion radicals. The inhibition ratio of formazan formation was determined from the results at concentrations of 0.5 mM and 4 mM of each specimen.

Inhibition ratio (%) of formazan formation (Concentration 0.5 mM): 17.8%
Inhibition ratio (%) of formazan formation (Concentration 4 mM): 55.5%
formazan formation (result in words) (summary of Table-4): remarkably inhibited formazan formation
SMILES: COC(=O)COC1=C(O)[C@@H]([C@@H]2COC(C)(C)O2)OC1=O [Compound 206, L-5,6-O-isopropylidene-2-O-methylcarbomethylascorbic acid]
